Assay results reported in patent US6630594B2, “Methods of making substituted phenylketoenols” (Bayer Aktiengesellschaft, priority 1996, dated 2003).

Columns and labels:
Format in all cases: in vivo
[1] = tested on: larvae of the mustard beetle (Phaedon cochleariae); assay: Phaedon larvae Test (cabbage leaf dip); details: concentration of active compound 0.1%, after 7 days, cabbage leaves dipped
Method: Phaedon larvae Test [table] To produce a suitable preparation of active compound, 1 part by weight of active compound is mixed with the stated amount of solvent and the stated amount of emulsifier, and the concentrate is diluted with water to the desired concentration. Cabbage leaves (Brassica oleracea) are treated by being dipped into the preparation of active compound of the desired concentration and are populated with larvae of the mustard beetle (Phaedon cochleariae) while the leaves are still moist.

[2] = tested on: green rice leaf hoppers (Nephotettix cincticeps); assay: Nephotettix-Test (rice seedling dip); details: concentration of active compound 0.1%, after 6 days, rice seedlings dipped
Method: (§1) To produce a suitable preparation of active compound, 1 part by weight of active compound is mixed with the stated amount of solvent and the stated amount of emulsifier, and the concentrate is diluted with water to the desired concentration.
Rice seedlings (Oryzae sativa) are treated by being dipped into the preparation of active compound of the desired concentration and are populated with the green rice leaf hoppers (Nephotettix cincticeps) while the seedlings are still moist.
After the desired period of time, the kill in % is determined. 100% means that all leaf hoppers have been killed; 0% means that none of the leaf hoppers have been killed.

[3] = tested on: greenhouse red spider mite Tetranychus urticae; assay: Tetranychus Test (OP-resistent/dip Treatment); details: concentration of active compound 0.1%, after 13 days, infested bean plants dipped, all stages
Method: Tetranychus Test (OP-resistent/dip Treatment)
as §1
Bean plants (Phaseolus vulgaris) which are heavily infested by all stages of the greenhouse red spider mite Tetranychus urticae are dipped into a perparation of active compound of the desired concentration.
After the desired period of time, the kill in % is determined. 100% means that all spider mites haven been killed: 0% means that none of the spider mites have been killed.

[4] = tested on: peach aphids (Myzus persicae); assay: Myzus-Test (cabbage leaf dip); details: concentration of active compound 0.1%, after 6 days, infested cabbage leaves dipped
Method: To produce a suitable preparation of active compound, 1 part by weight of active compound is mixed with the state amount of solvent and the stated amount of emulsifier, and the concentrate is diluted with water to the desired concentration.
Cabbage leaves (Brassica oleracea) which are heavily infested by peach aphids (Myzus persicae) are treated by being dipped into the preparation of active compound of the desired concentration.
After the desired period of time, the kill in % is determined. 100% means that all aphids have been killed; 0% means that none of the aphids have been killed.

[5] = tested on: caterpillars of the owlet moth Spodoptera frugiperda; assay: Spodoptera frugiperda Test (cabbage leaf dip); details: concentration of active compound 0.1%, after 7 days, cabbage leaves dipped
Method: Spodoptera frugiperda Test
as §1
Cabbage leaves (Brassica oleracea) are treated by being dipped into the preparation of active compound of the desired concentration and are populated with caterpillars of the owlet moth Spodoptera frugiperda) while the leaves are still moist.
After the desired period of time, the kill in % is determined. 100% means that all caterpillars have been killed; 0% means that none of the caterpillars haven been killed.

Measured: kill in %

Cc1cc(C)c(C2=C(O)C3(CCCOC3)NC2=O)c(C)c1 (stereo not drawn) [Example I-1-a-1]
100%: [1] | [2] | [3]

Cc1cc(C)c(C2=C(OC(=O)C(C)(C)C)C3(CCCOC3)NC2=O)c(C)c1 (stereo not drawn) [Example I-1-b-1]
100%: [1] | [2] | [3]

CCOC(=O)OC1=C(c2c(C)cc(C)cc2C)C(=O)NC12CCCOC2 (stereo not drawn) [Example I-1-c-1]
100%: [4] | [3] | [5]
